From paper PMC9081605, “A High-Throughput Toxicity Screen of 42 Per- and Polyfluoroalkyl Substances (PFAS) and Functional Assessment of Migration and Gene Expression in Human Placental Trophoblast Cells” (Frontiers in Toxicology, 2022) come the findings set out here.

The test relates to JEG-3 cells. Put plainly: Scratch wound migration assay. The format is cell-based, human. Conditions: for Migration, percent of wound closure: 100 µM, after 72 h; for cellular migration relative to vehicle control: after 24 h of exposure, 25-200 µM; for significant effects on migration observed at 24 h, followed to 72 h: any concentration, by 72 h. The procedure:
JEG-3 cells were cultured as described in Cell Culture section, and six PFAS were evaluated across an 8-point linear concentration curve ranging from 25 to 200 µM (25 µM steps): PFOA (335-67-1), GenX (62037-80-3), PFOS (1763-23-1), perfluorooctanesulfonamide (PFOSA, 754-91-6), perfluorooctanamide (PFOAA, 423-54-1), and perfluorononanoic acid (PFNA, 375-95-1). The vehicle control group consisted of 98% media + 2% methanol to match the concentration of methanol in the media at the highest PFAS concentration tested (200 µM). Cadmium chloride (25 µM) was used as a positive control for cytotoxicity ([Brooks and Fry, 2017]). Chemical exposure plate maps were designed so that all experimental conditions were tested in at least technical duplicates per plate. The outer edges of each plate received media alone and were excluded from all analyses to avoid edge effects. JEG-3 cells were counted and seeded at a density of 80,000 cells per well in black-walled, clear bottom 96-well plates (Corning #CLS3603, Millipore Sigma) and allowed to adhere and grow for 36 h. After approximately 36 h, 96-well plates were imaged on the IncuCyte Zoom to obtain cellular confluence measurements prior to chemical dosing (0 h). Media was then removed from wells and replaced with fresh serum-free media containing chemical treatments (serum-free exposure media) using the Viaflo liquid handling device. After 1 h of treatment with serum-free exposure media, plates were again imaged for cellular confluence using the IncuCyte Zoom. Serum-free exposure media was then removed from wells and wells were scratched by dragging a 200 µl pipette tip from top to bottom of each well, changing tips every well. Fresh media containing serum and chemical treatments (exposure media) was added to plates using a liquid handling device and allowed to grow for 72 h, with imaging via the IncuCyte Zoom every 6 h.
Plate well bottom images were evaluated using automated cell masking as described in Proliferation section. Cell migration was calculated as the change in cellular confluence from the baseline measurement obtained immediately post-scratch to each subsequent time point (24, 48, and 72 h, post-scratch).
Raw migration assay data exported from IncuCyte software were analyzed using GraphPad Prism 8.0 (GraphPad Software, San Diego, CA)). Prior to analysis, a minimum starting confluence value of 70% was set to ensure comparisons between samples were not skewed. Images with a starting confluence of less than 70% were excluded from analysis. Statistical analysis was performed using multiple unpaired t-tests to compare treated groups to the vehicle control followed by post hoc correction for multiple tests using the Bonferroni-Dunn method. Concentration-response analysis to determine migration assay EC50s was attempted but was not able to be modeled due to the non-linear nature of the concentration-response relationship for this endpoint.

For the molecule `N.O=C(O)C(F)(OC(F)(F)C(F)(F)C(F)(F)F)C(F)(F)F` (stereo not shown) [Ammonium perfluoro-2-methyl-3-oxahexanoate], the “Migration, percent of wound closure” value turned out to be 79% and the “cellular migration relative to vehicle control” value is listed as “significantly reduced”.

`O=C(O)C(F)(F)C(F)(F)C(F)(F)C(F)(F)C(F)(F)C(F)(F)C(F)(F)C(F)(F)F` [Perfluorononanoic acid]: the “cellular migration relative to vehicle control” value is recorded as “significantly reduced” and the “significant effects on migration observed at 24 h, followed to 72 h” value was “attenuated”.

`NS(=O)(=O)C(F)(F)C(F)(F)C(F)(F)C(F)(F)C(F)(F)C(F)(F)C(F)(F)C(F)(F)F` [Perfluorooctanesulfonamide]: the “cellular migration relative to vehicle control” value is reported as “significantly reduced”.

In the case of `O=S(=O)(O)C(F)(F)C(F)(F)C(F)(F)C(F)(F)C(F)(F)C(F)(F)C(F)(F)C(F)(F)F` [Perfluorooctanesulfonic acid], the “Migration, percent of wound closure” value worked out at 57% and the “cellular migration relative to vehicle control” value was “significantly reduced”.

Turning to `O=C(O)C(F)(F)C(F)(F)C(F)(F)C(F)(F)C(F)(F)C(F)(F)C(F)(F)F` [Perfluorooctanoic acid], the “Migration, percent of wound closure” value was 72%; the “cellular migration relative to vehicle control” value is “significantly reduced”; the “significant effects on migration observed at 24 h, followed to 72 h” value is “attenuated”.
